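Method: 48-hour compound exposure of cells in 96-well plates, five concentrations, linear interpolation of endpoints. The concentration for 50% growth inhibition is given as GI50.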 The source made the active and inactive calls. Cut-off read from the data, not from the text of the source: active = GI50 up to about 1.1 µM and inactive = higher.
Assays:
Test in all cases: NCI anticancer screen, dose series, 48 h
OVCAR-5 = tested on: OVCAR-5
HCT-15 = tested on: HCT-15
HOP-62 = tested on: HOP-62
TK-10 = tested on: TK-10
UO-31 = tested on: UO-31
ACHN = tested on: ACHN
NCI-H460 = tested on: NCI-H460
OVCAR-4 = tested on: OVCAR-4
OVCAR-3 = tested on: OVCAR-3
LOX IMVI = tested on: LOX IMVI
OVCAR-8 = tested on: OVCAR-8
RXF 393 = tested on: RXF 393
SK-MEL-5 = tested on: SK-MEL-5
COLO 205 = tested on: COLO 205
EKVX = tested on: EKVX
HCC 2998 = tested on: HCC 2998
SK-MEL-2 = tested on: SK-MEL-2
786-0 = tested on: 786-0
NCI-H522 = tested on: NCI-H522
HOP-92 = tested on: HOP-92

Structure (SMILES)	GI50 (OVCAR-5)	GI50 (HCT-15) [µM]	GI50 (HOP-62)	GI50 (TK-10)	GI50 (UO-31)	GI50 (ACHN)	GI50 (NCI-H460)	GI50 (OVCAR-4)	GI50 (OVCAR-3)	GI50 (LOX IMVI)	GI50 (OVCAR-8)	GI50 (RXF 393)	GI50 (SK-MEL-5)	GI50 (COLO 205)	GI50 (EKVX)	GI50 (HCC 2998)	GI50 (SK-MEL-2)	GI50 (786-0)	GI50 (NCI-H522)	GI50 (HOP-92)
COc1ccc(CCn2ccc(C)n2)c(OC)c1	> 100 µM (inactive)	> 100	> 100 µM (inactive)	> 100 µM (inactive)	46.6 µM (inactive)	> 100 µM (inactive)	> 100 µM (inactive)	> 100 µM (inactive)	> 100 µM (inactive)	> 100 µM (inactive)	> 100 µM (inactive)	> 100 µM (inactive)	> 100 µM (inactive)	> 100 µM (inactive)	47.2 µM (inactive)					
Cc1ccc(S(=O)(=O)N(c2ccccc2F)C2CCCCC2O)cc1 (stereo not given)	> 100 µM (inactive)	55	96.2 µM (inactive)	97.1 µM (inactive)	33.1 µM (inactive)	57.7 µM (inactive)	45.9 µM (inactive)	39.5 µM (inactive)	29.5 µM (inactive)	38.8 µM (inactive)	78 µM (inactive)		20.7 µM (inactive)	27.2 µM (inactive)	35.1 µM (inactive)	74.6 µM (inactive)	29.4 µM (inactive)	65.6 µM (inactive)		
COc1cc([C@@H]2c3cc4c(cc3[C@@H](Nc3ccc(Cl)cc3C(=O)c3ccccc3Cl)[C@H]3COC(=O)[C@H]23)OCO4)cc(OC)c1OC		0.102	0.443 µM (active)	39.7 µM (inactive)	0.344 µM (active)	0.125 µM (active)	0.146 µM (active)	> 45.8 µM (inactive)	0.332 µM (active)	0.245 µM (active)	0.152 µM (active)	0.144 µM (active)	0.102 µM (active)	0.267 µM (active)	57.9 µM (inactive)	0.373 µM (active)	0.953 µM (active)	0.261 µM (active)	0.0685 µM (active)	
Cc1ccc2oc(=O)c(-c3ccccc3)nc2c1	39.4 µM (inactive)	25.1	36.7 µM (inactive)	34 µM (inactive)	27 µM (inactive)	27.9 µM (inactive)	36.3 µM (inactive)	23.8 µM (inactive)	46.5 µM (inactive)	20.2 µM (inactive)	36.4 µM (inactive)		30.8 µM (inactive)	24.5 µM (inactive)	39.5 µM (inactive)	19.9 µM (inactive)	21 µM (inactive)	23.3 µM (inactive)	15.3 µM (inactive)	
CC1(C)C2CCC1(C)[C@H](O)[C@H]2Nc1cc(C(F)(F)F)cc(C(F)(F)F)c1 (stereo not given in full)	7.41 µM (inactive)	3.49	5.48 µM (inactive)	3.15 µM (inactive)	3.51 µM (inactive)	> 100 µM (inactive)	3.71 µM (inactive)	5.12 µM (inactive)	2.24 µM (inactive)	3 µM (inactive)	3.21 µM (inactive)	2.85 µM (inactive)	5.38 µM (inactive)	1.79 µM (inactive)	3.83 µM (inactive)	3.38 µM (inactive)	2.35 µM (inactive)	3.85 µM (inactive)		
O=C(NS(=O)(=O)OCC(Cl)(Cl)Cl)SCCC(F)(F)C(F)(F)C(F)(F)C(F)(F)C(F)(F)C(F)(F)F	18.6 µM (inactive)	20.9	28.2 µM (inactive)	29.5 µM (inactive)	38 µM (inactive)	40.9 µM (inactive)	19.6 µM (inactive)	16.4 µM (inactive)	24.9 µM (inactive)	22.5 µM (inactive)	51.3 µM (inactive)	22.5 µM (inactive)		17.9 µM (inactive)	18.3 µM (inactive)		25.3 µM (inactive)	35.6 µM (inactive)	20 µM (inactive)	10.4 µM (inactive)
CC1=CCC2CC1C(C(=O)c1c[nH]c3ccccc13)=NC2(C)C (stereo not given)	> 100 µM (inactive)	45.2	> 100 µM (inactive)		48.8 µM (inactive)	73.6 µM (inactive)	52.4 µM (inactive)	40.3 µM (inactive)	> 100 µM (inactive)	80.9 µM (inactive)	56.5 µM (inactive)		37.6 µM (inactive)	52.2 µM (inactive)	33.3 µM (inactive)	> 100 µM (inactive)		81.1 µM (inactive)	44.4 µM (inactive)	
Cc1cc(O)nc(NNC(C#N)c2ccc(O)cc2)n1 (stereo not given)	> 100 µM (inactive)	> 100	> 100 µM (inactive)	> 100 µM (inactive)	> 100 µM (inactive)	> 100 µM (inactive)	> 100 µM (inactive)	> 100 µM (inactive)	> 100 µM (inactive)	> 100 µM (inactive)	> 100 µM (inactive)	> 100 µM (inactive)	> 100 µM (inactive)	> 100 µM (inactive)			> 100 µM (inactive)	> 100 µM (inactive)	> 100 µM (inactive)	> 100 µM (inactive)
CC(Cc1ccc2c(c1)OCO2)N(C)C(=O)C1=CCN(C)CC1 (stereo not given)	> 100 µM (inactive)	> 100	> 100 µM (inactive)	> 100 µM (inactive)	> 100 µM (inactive)	> 100 µM (inactive)	> 100 µM (inactive)	> 100 µM (inactive)	> 100 µM (inactive)	> 100 µM (inactive)	> 100 µM (inactive)	> 100 µM (inactive)	> 100 µM (inactive)	> 100 µM (inactive)	> 100 µM (inactive)	> 100 µM (inactive)	> 100 µM (inactive)	> 100 µM (inactive)	> 100 µM (inactive)	
CC(=O)n1nnc2ccc([N+](=O)[O-])cc21	> 100 µM (inactive)		> 100 µM (inactive)	> 100 µM (inactive)	> 100 µM (inactive)	> 100 µM (inactive)	> 100 µM (inactive)	> 100 µM (inactive)	> 100 µM (inactive)	> 100 µM (inactive)	> 100 µM (inactive)	> 100 µM (inactive)	> 100 µM (inactive)	> 100 µM (inactive)	> 100 µM (inactive)		> 100 µM (inactive)	> 100 µM (inactive)	> 100 µM (inactive)	> 100 µM (inactive)
CC1=N/C(=C/c2ccc3c(c2)OCO3)C(=O)O1	> 100 µM (inactive)	> 100		> 100 µM (inactive)	> 100 µM (inactive)	> 100 µM (inactive)		> 100 µM (inactive)	> 100 µM (inactive)	> 100 µM (inactive)	> 100 µM (inactive)	> 100 µM (inactive)	> 100 µM (inactive)	> 100 µM (inactive)	> 100 µM (inactive)		> 100 µM (inactive)	> 100 µM (inactive)	> 100 µM (inactive)	> 100 µM (inactive)
NC(=O)c1ccccc1NC(=O)C(=O)Nc1n[nH]c(N)n1	> 100 µM (inactive)	> 100	> 100 µM (inactive)	> 100 µM (inactive)	> 100 µM (inactive)	> 100 µM (inactive)	> 100 µM (inactive)	> 100 µM (inactive)	> 100 µM (inactive)	> 100 µM (inactive)	> 100 µM (inactive)	> 100 µM (inactive)	> 100 µM (inactive)	> 100 µM (inactive)	> 100 µM (inactive)	> 100 µM (inactive)	> 100 µM (inactive)	> 100 µM (inactive)	> 100 µM (inactive)	
C[C@]12CCC(=O)C=C1CC[C@@H]1C2CC[C@]2(C)NC(=O)C(C#N)CC12 (stereo not given in full)	> 100 µM (inactive)	> 100	39.6 µM (inactive)	> 100 µM (inactive)	> 100 µM (inactive)	> 100 µM (inactive)	> 100 µM (inactive)	> 100 µM (inactive)	> 100 µM (inactive)		> 100 µM (inactive)	> 100 µM (inactive)	> 100 µM (inactive)			> 100 µM (inactive)	> 100 µM (inactive)	> 100 µM (inactive)		
COc1cc(/C=C\c2cccnc2)cc(OC)c1OC	> 100 µM (inactive)	39.4	37.8 µM (inactive)	> 100 µM (inactive)	27.9 µM (inactive)	> 100 µM (inactive)	40.8 µM (inactive)	> 100 µM (inactive)	54 µM (inactive)	26.2 µM (inactive)	63.2 µM (inactive)	22.6 µM (inactive)	18.9 µM (inactive)	29.3 µM (inactive)	38.1 µM (inactive)			67.9 µM (inactive)	25.3 µM (inactive)	26 µM (inactive)
O=C(NCCNCCO)N/N=C/c1cccc([N+](=O)[O-])c1	> 100 µM (inactive)	> 100	> 100 µM (inactive)	> 100 µM (inactive)	> 100 µM (inactive)	> 100 µM (inactive)	> 100 µM (inactive)	> 100 µM (inactive)	> 100 µM (inactive)	> 100 µM (inactive)	> 100 µM (inactive)	> 100 µM (inactive)	> 100 µM (inactive)	> 100 µM (inactive)			> 100 µM (inactive)	> 100 µM (inactive)	> 100 µM (inactive)	> 100 µM (inactive)
COc1ccc2c(c1)O[C@H]1c3ccc(O)cc3OC[C@@H]21	48.6 µM (inactive)	34.1	45.5 µM (inactive)	35.3 µM (inactive)	20 µM (inactive)	27.2 µM (inactive)	35.1 µM (inactive)	34.6 µM (inactive)	29.2 µM (inactive)	13 µM (inactive)	36 µM (inactive)	19.3 µM (inactive)	17.3 µM (inactive)	24.1 µM (inactive)	34 µM (inactive)	22.9 µM (inactive)	26.5 µM (inactive)		22.7 µM (inactive)	
